Test results from US11819476B2, “Rapamycin analogs and uses thereof” (Janssen Pharmaceutica NV, priority 2019, dated 2023).

Legend:
Type in all cases: cell-based
[1] = tested on: pS6K1 T389 in PC3 cells (mTORC1 pathway); assay: Western blot based pS6K1 assay (mTORC1 pathway); conditions: 24 hours
Procedure: (§1) Example 76: Western Blot Based pS6K1 and pAKT Assay at 24 and 48 Hour Timepoints
(§2) Assay Protocol: • 1. Seed six well plate with 500,000 PC3 cells per well and incubate for […]. • 2. Add compounds into the cell plate. Incubate for 24 to 48 hours. • 4. Plate is placed on ice and the media is removed via aspiration. The wells are washed with 1 mL of 1×PBS and then fully aspirated. • 5. 110 μL of 1% Triton Lysis Buffer is added and each well is scraped vigorously. • 6. Cell homogenates are transferred to 1.5 mL eppendorf tubes on ice and spun down at 4° C. for 10 minutes at 10,000 rpm. • 7. Protein concentration of resulting cell lysates were quantified utilizing a Bradford assay and the samples run analyzed via Western blot on 4-12% Bis/Tris gels with 1×MES buffer. • 8. The gels were transferred onto membranes at 50V for 100 minutes, blocked with Odyssey Blocking buffer for 30 minutes then incubated overnight with primary antibody (pS6K1 T389 Rabbit or pAkt S473 Rabbit) overnight at 4° C. on a rotator. • 9. The membranes were washed 3× with TBS-T with a 5 minute incubation between each wash then incubated with secondary antibody (LiCor IRDye 800 Donkey Anti Rabbit) for at least 30 minutes. • 10. The membranes were washed 3× with TBS-T with a 5 minute incubation between each wash. • 11. The gels were then incubated for 5 minutes with PBS at room temperature then imaged using a Li-Cor.
PC3 cells were treated with everolimus (0.1 μM, 0.01 μM, and 0.001 μM) or I-9 ([…], 0.1 μM, 0.01 μM, and 0.001 μM) for 24 hours.
The methods employed were substantially similar to those described above. Compounds were evaluated in PC3 cells. Additional cell lines that may be used include Jurkat cells, wild-type mouse embryotic fibroblast (MEF) cells, tuberous sclerosis 2 (TSC2) negative (TSC−/−) MEF cells, and tuberous sclerosis 2 (TSC2) positive (TSC+/+) MEF cells. Cells are incubated with compounds of the present invention for various time periods (e.g., 5 minutes, 15 minutes, 30 minutes, 90 minutes, 24 hours, or 48 hours), and evaluated according to known methodologies, such as those herein described.

mTORC1 over mTORC2 = assay: mTORC1 selectivity over mTORC2 at 24 hrs (pS6K1 and pAKT assays); conditions: for mTORC1 selective @ 24 hrs: selectivity for mTORC1 over mTORC2 at 24 hrs
Procedure: as §1, §2
The compound numbers correspond to the compound numbers in Table 1.
Compounds that are not selective at the 24 hrs mark are indicated by “NO” in the “mTORC1 selective @ 24 hrs” column of Table 4. Compounds that partially retain selectivity for mTORC1 inhibition over mTORC2 are indicated by “Partial” in the “mTORC1 selective @ 24 hrs” column of Table 4.

pS6K1 in MCF7 = assay: AlphaLISA Ultra pS6K1 Assay; conditions: Homo sapiens, 1.5 h; MCF7 cells, 90 min incubation
Procedure: Example 74: AlphaLISA Ultra pS6K1 Assay
Assay Protocol: • 1. Seed MCF-7 cells in Corning 3701 plate and incubate for 20˜24 hour. 12,000˜16,000 cells will be seeded in 36 μL medium per well. • 2. Change the culture medium with fresh medium and incubate for another 2 hours. • 3. Add 12 μL (4×) compounds into the cell plate by HAMILTON. Final DMSO concentration is 0.5%. Incubate for 90 minutes. • 4. Aspirate 38 μL by HAMILTON, 10 μL rest per well. • 5. Add 10 μL 2× lysis buffer using HAMILTON; total volume in wells is 20 μL. Allow cells to shake for 30 min. Cover plate by plastic foil and store plate at −80° C. up to analysis. • 6. Thaw cell lysate at RT and transfer 10 μL lysate to assay plate (Optiplate-384). • 7. Add 5 μL acceptor beads into assay plate and incubation for 2 hours • 8. Add 5 μL donor beads and incubation for 2 hours • 9. Count the plate by EnSpire Multimode Plate Reader

IC50 (pS6K1 in MCF7) | Structure (SMILES) | inhibition of the mTORC1 pathway (pS6K1, Western blot) [1] | other results
 | CO[C@@H]1C[C@H](C[C@@H](C)[C@@H]2CC(=O)[C@H](C)/C=C(\C)[C@@H](O)[C@@H](OC)C(=O)[C@H](C)C[C@H](C)/C=C/C=C/C=C(\C)[C@@H](OCCC3CCNC3=O)C[C@@H]3CC[C@@H](C)[C@@](O)(O3)C(=O)C(=O)N3CCCC[C@H]3C(=O)O2)CC[C@H]1OCCO (stereo partly drawn) [Example I-3, (23E,25E,27E,28E,34R,35S,36R,37R,39S,42S,44S,45S,46R,47R,57R)-46,57-dihydroxy-45-[(1R)-2-[(1S,3R,4R)-4-(2-hydroxyethoxy)-3-methoxy-cyclohexyl]-1-methyl-ethyl]-47-methoxy-34,35,36,37,48,49-hexamethyl-44-[2-(2-oxopyrrolidin-3-yl)ethoxy]-69,70-dioxa-59-azatricyclohexatriaconta-23,25,27(48),28(49)-tetraene-50,51,53,54,55-pentone] | strong inhibition | 
1 to 10 nM | CO[C@@H]1C[C@H](C[C@@H](C)[C@@H]2CC(=O)[C@H](C)/C=C(\C)[C@@H](O)[C@@H](OC)C(=O)[C@H](C)C[C@H](C)/C=C/C=C/C=C(\C)[C@@H](OCCOc3ccccc3)C[C@@H]3CC[C@@H](C)[C@@](O)(O3)C(=O)C(=O)N3CCCC[C@H]3C(=O)O2)CC[C@H]1OCCO [Example I-7, (26E,28E,30E,31E,38R,39S,40R,41R,43S,45S,47S,48S,49R,50R,59R)-49,59-dihydroxy-48-[(1R)-2-[(1S,3R,4R)-4-(2-hydroxyethoxy)-3-methoxy-cyclohexyl]-1-methyl-ethyl]-50-methoxy-38,39,40,41,51,52-hexamethyl-47-(2-phenoxyethoxy)-69,70-dioxa-60-azatricyclohexatriaconta-26,28,30(51),31(52)-tetraene-53,54,55,56,57-pentone] |  | mTORC1 selective @ 24 hrs (mTORC1 over mTORC2): Yes
 | CO[C@@H]1C[C@H](C[C@@H](C)[C@@H]2CC(=O)[C@H](C)/C=C(\C)[C@@H](O)[C@@H](OC)C(=O)[C@H](C)C[C@H](C)/C=C/C=C/C=C(\C)[C@@H](OCCCC3CCNC3=O)C[C@@H]3CC[C@@H](C)[C@@](O)(O3)C(=O)C(=O)N3CCCC[C@H]3C(=O)O2)CC[C@H]1OCCO (stereo partly drawn) [Example I-15, (23E,25E,27E,28E,35R,36S,37R,38R,40S,43S,45S,46S,47R,48R,58R)-47,58-dihydroxy-46-[(1R)-2-[(1S,3R,4R)-4-(2-hydroxyethoxy)-3-methoxy-cyclohexyl]-1-methyl-ethyl]-48-methoxy-35,36,37,38,49,50-hexamethyl-45-[3-(2-oxopyrrolidin-3-yl)propoxy]-70,71-dioxa-60-azatricyclohexatriaconta-23,25,27(49),28(50)-tetraene-51,52,54,55,56-pentone] | strong inhibition | 
 | CO[C@@H]1C[C@H](C[C@@H](C)[C@@H]2CC(=O)[C@H](C)/C=C(\C)[C@@H](O)[C@@H](OC)C(=O)[C@H](C)C[C@H](C)/C=C/C=C/C=C(\C)C(OCCCCS(N)(=O)=O)C[C@@H]3CC[C@@H](C)[C@@](O)(O3)C(=O)C(=O)N3CCCC[C@H]3C(=O)O2)CC[C@H]1OCCO (some centres unmarked) [Example I-19] |  | selectivity over mTORC2 as measured by the impact of pAKT (mTORC1 over mTORC2; at 24 hours, depends on size of C-7 group): marked selectivity
≥ 100 nM | COc1ccc([C@@H]2C[C@@H]3CC[C@@H](C)[C@@](O)(O3)C(=O)C(=O)N3CCCC[C@H]3C(=O)O[C@H]([C@H](C)C[C@@H]3CC[C@@H](O)[C@H](OC)C3)CC(=O)[C@H](C)/C=C(\C)[C@H](O)[C@@H](OC)C(=O)[C@H](C)C[C@H](C)/C=C/C=C/C=C/2C)c(OC)c1 [Example I-37, (26E,28E,30E,31E,36R,37S,38R,39R,41S,43S,44R,46S,47R,48R,57R)-44-(2,4-dimethoxyphenyl)-47,57-dihydroxy-46-[(1R)-2-[(1S,3R,4R)-4-hydroxy-3-methoxy-cyclohexyl]-1-methyl-ethyl]-48-methoxy-36,37,38,39,49,50-hexamethyl-67,68-dioxa-58-azatricyclohexatriaconta-26,28,30(49),31(50)-tetraene-51,52,53,54,55-pentone] |  | 
10 to 100 nM | COc1ccc([C@H]2C[C@@H]3CC[C@@H](C)[C@@](O)(O3)C(=O)C(=O)N3CCCC[C@H]3C(=O)O[C@H]([C@H](C)C[C@@H]3CC[C@@H](O)[C@H](OC)C3)CC(=O)[C@H](C)/C=C(\C)[C@H](O)[C@@H](OC)C(=O)[C@H](C)C[C@H](C)/C=C/C=C/C=C/2C)c(OC)c1 [Example I-38, (26E,28E,30E,31E,36R,37S,38R,39R,41S,43S,44S,46S,47R,48R,57R)-44-(2,4-dimethoxyphenyl)-47,57-dihydroxy-46-[(1R)-2-[(1S,3R,4R)-4-hydroxy-3-methoxy-cyclohexyl]-1-methyl-ethyl]-48-methoxy-36,37,38,39,49,50-hexamethyl-67,68-dioxa-58-azatricyclohexatriaconta-26,28,30(49),31(50)-tetraene-51,52,53,54,55-pentone] |  | 
 | CO[C@@H]1C[C@H](C[C@@H](C)[C@@H]2CC(=O)[C@H](C)/C=C(\C)[C@@H](O)[C@@H](OC)C(=O)[C@H](C)C[C@H](C)/C=C/C=C/C=C(\C)[C@@H](OCCCCC(N)=O)C[C@@H]3CC[C@@H](C)[C@@](O)(O3)C(=O)C(=O)N3CCCC[C@H]3C(=O)O2)CC[C@H]1OCCO [Example I-48] | strong inhibition | 
 | CO[C@@H]1C[C@H](C[C@@H](C)[C@@H]2CC(=O)[C@H](C)/C=C(\C)[C@@H](O)[C@@H](OC)C(=O)[C@H](C)C[C@H](C)/C=C/C=C/C=C(\C)[C@@H](OCCS(=O)(=O)CCS(=O)(=O)CCO)C[C@@H]3CC[C@@H](C)[C@@](O)(O3)C(=O)C(=O)N3CCCC[C@H]3C(=O)O2)CC[C@H]1O [Example I-65, (21E,23E,25E,26E,34R,35S,36R,37R,39S,41S,43S,44S,45R,46R,55R)-45,55-dihydroxy-43-[2-[2-(2-hydroxyethylsulfonyl)ethylsulfonyl]ethoxy]-44-[(1R)-2-[(1S,3R,4R)-4-hydroxy-3-methoxy-cyclohexyl]-1-methyl-ethyl]-46-methoxy-34,35,36,37,47,48-hexamethyl-70,71-dioxa-56-azatricyclohexatriaconta-21,23,25(47),26(48)-tetraene-49,50,51,52,53-pentone] | strong inhibition | 

Structure (SMILES) | IC50 (pS6K1 in MCF7) | inhibition of the mTORC1 pathway (pS6K1, Western blot) [1] | other results
CO[C@@H]1C[C@H](C[C@@H](C)[C@@H]2CC(=O)[C@H](C)/C=C(\C)[C@@H](O)[C@@H](OC)C(=O)[C@H](C)C[C@H](C)/C=C/C=C/C=C(\C)[C@@H](OCCCCCO)C[C@@H]3CC[C@@H](C)[C@@](O)(O3)C(=O)C(=O)N3CCCC[C@H]3C(=O)O2)CC[C@H]1O [Example I-35, (21E,23E,25E,26E,33R,34S,35R,36R,38S,40S,42S,43S,44R,45R,54R)-44,54-dihydroxy-43-[(1R)-2-[(1S,3R,4R)-4-hydroxy-3-methoxy-cyclohexyl]-1-methyl-ethyl]-42-(5-hydroxypentoxy)-45-methoxy-33,34,35,36,46,47-hexamethyl-65,66-dioxa-55-azatricyclohexatriaconta-21,23,25(46),26(47)-tetraene-48,49,50,51,52-pentone] | 0.1 to 1 nM |  | mTORC1 selective @ 24 hrs (mTORC1 over mTORC2): Yes
